Series [1] addresses binding of IL-17A to IL-17RA (Homo sapiens (Human), UniProt Q16552). The series is described as follows: IL-17A:IL-17RA AlphaLISA. For orientation: Alpha assays give light when donor and acceptor beads are brought close together.
Method: The ability of compounds to inhibit the binding of IL-17A to IL-17RA may be assessed with an AlphaLISA assay.
To assay the compounds of the present invention, 0.1 μL of a test compound stock is serially diluted in 100% DMSO using an Echo Acoustic Liquid Handler (LabCyte Sunnydale, Calif.) in 384 well proxiplates (Perkin Elmer). A 5 μL addition of IL-17RA-FLAG is added to the plate, followed by the addition of 5 μL Avi-tagged IL-17A-His to provide a final concentration of 2 nM of IL-17RA and IL-17A, respectively. The assay is carried out in 20 mM HEPES, 150 mM NaCl, 0.05% Tween-20, 0.1% Human Serum Albumin, pH 7 and 1% DMSO. The assay mixture is allowed to incubate at room temperature for 2 hours. After the 2 hour incubation, 10 μL of streptavidin donor beads (20 μg/ml final) and anti-FLAG acceptor beads (20 μg/ml final) are added to the plate. The plate is allowed to incubate for one hour at room temp, then is read on the Envision (Perkin Elmer). The relative IC50 values are determined using a four parameter fit as shown in equation 1. In this equation, bottom and top are defined as the plateaus of the curve, and H is the Hill Slope.
For a further series, the target named is human IL-17A (Homo sapiens (Human), UniProt Q16552).
Series [2] is described as follows: Mouse oral bioavailability. Type of series: in vivo. The settings on record: whole blood (dried blood spot), male mice, IV bolus 1 mg/kg vs oral 3 mg/kg, 8-hour AUC, read-out: % F (mouse). The method, then: Oral bioavailability (% F) for compounds of the invention may be determined in mice by determination of an 8-hour blood plasma AUC (nM*hr) following intravenous and oral administration performed essentially as follows. Male mice (n=3) are administered compound via intravenous (IV) bolus (1 mg/kg) or orally (3 mg/kg). For intravenous administration, a vehicle of 20% w/v capsitol in NaPO4 buffer (25 mM) adjusted to pH 2 in a volume of 5 mL/kg is used. For oral administration, a vehicle of HEC/P80/AF/PW (probe sonicated to afford a homogeneous suspension) in a volume of 10 mL/kg is used. Blood is sampled by saphenous bleeding using K2 EDTA as anticoagulant. Approximately 20 μL of blood (or enough for 1 spot) is collected via a capillary tube and transferred to a card as a dry blood spot. Cards are allowed to dry for at least 2 hours before shipping for analysis. Blood concentration of compounds for each mouse is measured by liquid chromatography/tandem mass spectrometry at time points of 0.08 (IV only), 0.25, 0.5, 0.75, 2, 4, and 8 hours. Oral bioavailability (% F) is determined via the following equation: [% F=(AUC/Dose)PO/(AUC/Dose)IV].

human IL-17A, sequence (Q16552 20-155): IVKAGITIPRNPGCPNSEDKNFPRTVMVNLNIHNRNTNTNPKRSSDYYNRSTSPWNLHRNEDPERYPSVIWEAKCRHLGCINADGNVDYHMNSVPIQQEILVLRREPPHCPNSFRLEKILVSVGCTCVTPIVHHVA
binding of IL-17A to IL-17RA, sequence (Q16552 other isoform, or with tags, fused parts or gaps): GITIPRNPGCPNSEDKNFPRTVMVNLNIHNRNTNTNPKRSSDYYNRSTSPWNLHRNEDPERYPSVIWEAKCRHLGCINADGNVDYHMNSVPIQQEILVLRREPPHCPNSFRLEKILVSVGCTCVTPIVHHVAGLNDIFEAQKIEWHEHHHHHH
Method for human IL-17A: The ability of compounds to neutralize the activity of IL-17A may be assessed with a cell-based human IL-17A neutralization assay conducted essentially as follows. […] After 48 hours, CXCL1/GROα in the culture media is measured using a commercial ELISA kit (#DY275; R&D Systems). Medium alone treatments are included in every experiment to assess the basal levels of CXCL1/GROα. Percent inhibition is calculated using the following equation:

As for `COc1nonc1C(=O)N[C@H](c1cn2ncc(CN3C[C@@H](C(F)(F)F)NC3=O)cc2n1)C1CCC(F)(F)CC1` [Example 22, N—[(S)-(4,4-Difluorocyclohexyl)-[7-[[(4S)-2-oxo-4-(trifluoromethyl)imidazolidin-1-yl]methyl]imidazo[1,2-b]pyridazin-2-yl]methyl]-4-methoxy-1,2,5-oxadiazole-3-carboxamide], the IC50 was 11.4 nM in series [1] and 83.4 nM against human IL-17A.
Take `CC(C)(F)c1nocc1C(=O)N[C@H](c1cn2ncc(CN3C[C@@H](C(F)(F)F)NC3=O)cc2n1)C1CCC(F)(F)CC1` [Example 15, N—[(S)-(4,4-Difluorocyclohexyl)-[7-[[(4S)-2-oxo-4-(trifluoromethyl)imidazolidin-1-yl]methyl]imidazo[1,2-b]pyridazin-2-yl]methyl]-3-(1-fluoro-1-methyl-ethyl)isoxazole-4-carboxamide]: the IC50 in series [1] was 51.9 nM; against human IL-17A, 82.9 nM.
As for `O=C(N[C@H](c1cn2ncc(CN3C[C@@H](C(F)(F)F)NC3=O)cc2n1)C1CCC(F)(F)CC1)c1conc1CC(F)F` [Example 8, N—[(S)-(4,4-Difluorocyclohexyl)-[7-[[(4S)-2-oxo-4-(trifluoromethyl)imidazolidin-1-yl]methyl]imidazo[1,2-b]pyridazin-2-yl]methyl]-3-(2,2-difluoroethyl)isoxazole-4-carboxamide], the IC50 in series [1] was determined as 15.5 nM; against human IL-17A it was 52.4 nM.
The corresponding values for `CC1(c2nocc2C(=O)N[C@H](c2cn3ncc(CN4C[C@@H](C(F)(F)F)NC4=O)cc3n2)C2CCC(F)(F)CC2)CC1` [Example 14, N—[(S)-(4,4-Difluorocyclohexyl)-[7-[[(4S)-2-oxo-4-(trifluoromethyl)imidazolidin-1-yl]methyl]imidazo[1,2-b]pyridazin-2-yl]methyl]-3-(1-methylcyclopropyl)isoxazole-4-carboxamide] are 36.1 nM and 33.3 nM.
The corresponding values for `O=C(N[C@H](c1cn2ncc(CN3C[C@@H](C(F)(F)F)NC3=O)cc2n1)C1CCC(F)(F)CC1)c1conc1C(F)(F)C1CC1` [Example 13, 3-[Cyclopropyl(difluoro)methyl]-N—[(S)-(4,4-difluorocyclohexyl)-[7-[[(4S)-2-oxo-4-(trifluoromethyl)imidazolidin-1-yl]methyl]imidazo[1,2-b]pyridazin-2-yl]methyl]isoxazole-4-carboxamide] are 47.1 nM and 53.1 nM.
For `COC[C@H](c1cnn2cc([C@@H](NC(=O)c3nonc3C)C3CCC(F)(F)CC3)nc2c1)N1C[C@@H](C(F)(F)F)NC1=O` [Example 24, N—[(S)-(4,4-Difluorocyclohexyl)-[7-[(1S)-2-methoxy-1-[(4S)-2-oxo-4-(trifluoromethyl)imidazolidin-1-yl]ethyl]imidazo[1,2-b]pyridazin-2-yl]methyl]-4-methyl-1,2,5-oxadiazole-3-carboxamide], in series [2], the bioavailability amounted to 107%. The IC50 in series [1] was below 9.45 nM; at human IL-17A, 9.3 ± 6 nM.
Consider `Cc1nocc1C(=O)N[C@H](c1cn2ncc(CN3C[C@@H](C(F)(F)F)NC3=O)cc2n1)C1CCC(F)(F)CC1` [Example 3, N—[(S)-(4,4-Difluorocyclohexyl)-[7-[[(4S)-2-oxo-4-(trifluoromethyl)imidazolidin-1-yl]methyl]imidazo[1,2-b]pyridazin-2-yl]methyl]-3-methyl-isoxazole-4-carboxamide], for which, in series [2], the bioavailability came to 35%. Besides, the IC50 was 27.7 ± 2.4 nM in series [1] and 127 nM at human IL-17A.
Turning to `CCc1nocc1C(=O)N[C@H](c1cn2ncc(CN3C[C@@H](C(F)(F)F)NC3=O)cc2n1)C1CCC(F)(F)CC1` [Example 2, N—[(S)-(4,4-Difluorocyclohexyl)-[7-[[(4S)-2-oxo-4-(trifluoromethyl)imidazolidin-1-yl]methyl]imidazo[1,2-b]pyridazin-2-yl]methyl]-3-ethyl-isoxazole-4-carboxamide], the bioavailability in series [2] turned out to be 28%. Besides, the values for the IC50 (in series [1]; on human IL-17A) were 15.2 ± 2.5 nM and 53.3 ± 26.4 nM, respectively.
For the compound `CC(C)c1nocc1C(=O)N[C@H](c1cn2ncc(CN3C[C@@H](C(F)(F)F)NC3=O)cc2n1)C1CCC(F)(F)CC1` [Example 16, N—[(S)-(4,4-Difluorocyclohexyl)-[7-[[(4S)-2-oxo-4-(trifluoromethyl)imidazolidin-1-yl]methyl]imidazo[1,2-b]pyridazin-2-yl]methyl]-3-isopropyl-isoxazole-4-carboxamide], the IC50 in series [1] turned out to be 19.3 nM; against human IL-17A, 10.8 nM.
As for `O=C(N[C@H](c1cn2ncc(CN3C[C@@H](C(F)(F)F)NC3=O)cc2n1)C1CCC(F)(F)CC1)c1conc1CCF` [Example 9, N—[(S)-(4,4-Difluorocyclohexyl)-[7-[[(4S)-2-oxo-4-(trifluoromethyl)imidazolidin-1-yl]methyl]imidazo[1,2-b]pyridazin-2-yl]methyl]-3-(2-fluoroethyl)isoxazole-4-carboxamide], in series [2], the bioavailability stood at 12%. Moreover, the IC50 in series [1] came to 10.6 nM; against human IL-17A it was 46.5 nM.
In the case of `CCc1nonc1C(=O)N[C@H](c1cn2ncc(CN3C[C@@H](C(F)(F)F)NC3=O)cc2n1)C1CCC(F)(F)CC1` [Example 17, N—[(S)-(4,4-Difluorocyclohexyl)-[7-[[(4S)-2-oxo-4-(trifluoromethyl)imidazolidin-1-yl]methyl]imidazo[1,2-b]pyridazin-2-yl]methyl]-4-ethyl-1,2,5-oxadiazole-3-carboxamide], the IC50 in series [1] is below 9.45 nM; against human IL-17A, 15.9 nM.
For `Cc1nonc1C(=O)N[C@H](c1cn2ncc(CN3C[C@@H](C(F)(F)F)NC3=O)cc2n1)C1CCC(F)(F)CC1` [Example 6, N—[(S)-(4,4-Difluorocyclohexyl)-[7-[[(4S)-2-oxo-4-(trifluoromethyl)imidazolidin-1-yl]methyl]imidazo[1,2-b]pyridazin-2-yl]methyl]-4-methyl-1,2,5-oxadiazole-3-carboxamide], in series [2], the bioavailability turned out to be 75%. Also, the half-maximal inhibitory concentration (IC50) is below 9.45 nM in series [1] and 94.2 nM at human IL-17A.
As for `O=C(N[C@H](c1cn2ncc(CN3C[C@@H](C(F)(F)F)NC3=O)cc2n1)C1CCC(F)(F)CC1)c1conc1C(F)F` [Example 4, N—[(S)-(4,4-Difluorocyclohexyl)-[7-[[(4S)-2-oxo-4-(trifluoromethyl)imidazolidin-1-yl]methyl]imidazo[1,2-b]pyridazin-2-yl]methyl]-3-(difluoromethyl)isoxazole-4-carboxamide], the bioavailability in series [2] was 59%. The IC50 in series [1] is 13 ± 2 nM; on human IL-17A, 93.7 nM.
Consider `O=C(N[C@H](c1cn2ncc(CN3C[C@@H](C(F)(F)F)NC3=O)cc2n1)C1CCC(F)(F)CC1)c1nonc1C(F)F` [Example 18, N—[(S)-(4,4-Difluorocyclohexyl)-[7-[[(4S)-2-oxo-4-(trifluoromethyl)imidazolidin-1-yl]methyl]imidazo[1,2-b]pyridazin-2-yl]methyl]-4-(difluoromethyl)-1,2,5-oxadiazole-3-carboxamide], for which the IC50 is below 9.45 nM in series [1] and 22.7 nM on human IL-17A.
Consider `O=C(N[C@H](c1cn2ncc(CN3C[C@@H](C(F)(F)F)NC3=O)cc2n1)C1CCC(F)(F)CC1)c1conc1C1CC(F)(F)C1` [Example 10, 3-(3,3-Difluorocyclobutyl)-N—[(S)-(4,4-difluorocyclohexyl)-[7-[[(4S)-2-oxo-4-(trifluoromethyl)imidazolidin-1-yl]methyl]imidazo[1,2-b]pyridazin-2-yl]methyl]isoxazole-4-carboxamide], for which the values for the IC50 (in series [1]; at human IL-17A) were 47 nM and 48.9 nM, respectively.
Regarding `O=C(N[C@H](c1cn2ncc(CN3C[C@@H](C(F)(F)F)NC3=O)cc2n1)C1CCC(F)(F)CC1)c1conc1C1(F)CC1` [Example 12, N—[(S)-(4,4-Difluorocyclohexyl)-[7-[[(4S)-2-oxo-4-(trifluoromethyl)imidazolidin-1-yl]methyl]imidazo[1,2-b]pyridazin-2-yl]methyl]-3-(1-fluorocyclopropyl)isoxazole-4-carboxamide], the values for the IC50 (in series [1]; against human IL-17A) were 18.1 nM and 107 nM, respectively.
`O=C(N[C@H](c1cn2ncc(CN3C[C@@H](C(F)(F)F)NC3=O)cc2n1)C1CCC(F)(F)CC1)c1nonc1CC(F)(F)F` [Example 23, N—[(S)-(4,4-difluorocyclohexyl)-[7-[[(4S)-2-oxo-4-(trifluoromethyl)imidazolidin-1-yl]methyl]imidazo[1,2-b]pyridazin-2-yl]methyl]-4-(2,2,2-trifluoroethyl)-1,2,5-oxadiazole-3-carboxamide]: the values for the IC50 (in series [1]; at human IL-17A) were below 9.45 nM and 14.9 nM, respectively.
`O=C(N[C@H](c1cn2ncc(CN3C[C@@H](C(F)(F)F)NC3=O)cc2n1)C1CCC(F)(F)CC1)c1nonc1C1CC1` [Example 19, 4-Cyclopropyl-N—[(S)-(4,4-difluorocyclohexyl)-[7-[[(4S)-2-oxo-4-(trifluoromethyl)imidazolidin-1-yl]methyl]imidazo[1,2-b]pyridazin-2-yl]methyl]-1,2,5-oxadiazole-3-carboxamide]: the bioavailability in series [2] was found to be 47%.

For orientation: IC50 means the point on the concentration scale where inhibition reaches its midpoint. Low values mean greater potency, high ones weaker potency.

Values taken from patent US12252491B2, “IL-17A inhibitors” (Eli Lilly and Company, priority 2019, dated 2025).
